Read-outs that look alike come from different tables or passages of the source.

Drawing on paper PMC6611227 (Frontiers in Microbiology, 2019), this text covers activity, Km and IC50 for nine molecules.

Data set [1] deals with T1, PiDHODH (dihydroorotate dehydrogenase) (Phytophthora infestans, UniProt D0MUE3).
T1 construct: gene PITG_01913
Description: biochemical. The following applies: read-out: Activity % PiDHODH.

Data set [2] concerns O=C1C[C@@H](C(=O)O)NC(=O)N1. Description: purified protein.
Data set [3] addresses T1, PiDHODH (dihydroorotate dehydrogenase). Briefly: biochemical.
Substrate in the data set “purified protein”: O=C1C[C@@H](C(=O)O)NC(=O)N1
Description: purified protein. The settings on record: FMN orotate/dihydroorotate site in the α/β-barrel domain.

T1 sequence (D0MUE3 55-424 limits assumed): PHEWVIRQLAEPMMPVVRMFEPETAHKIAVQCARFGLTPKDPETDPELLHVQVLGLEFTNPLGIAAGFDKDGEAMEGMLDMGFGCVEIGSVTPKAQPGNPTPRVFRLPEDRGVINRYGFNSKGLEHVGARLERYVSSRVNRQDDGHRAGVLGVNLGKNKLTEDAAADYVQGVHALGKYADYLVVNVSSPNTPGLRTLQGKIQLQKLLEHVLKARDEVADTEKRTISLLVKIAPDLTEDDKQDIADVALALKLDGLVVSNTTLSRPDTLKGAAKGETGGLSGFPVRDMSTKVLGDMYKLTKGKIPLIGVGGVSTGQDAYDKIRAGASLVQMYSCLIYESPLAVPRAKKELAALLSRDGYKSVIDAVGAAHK

Turning to `Cc1cc(Nc2cc(F)c(C(F)(F)F)c(F)c2)n2ncnc2n1` [DSM190, N-(3,5-difluoro-4-(trifluoromethyl)phenyl)-5-methyl-[1,2,4]triazolo[1,5-a]pyrimidin-7-amine], the activity at 500 µM in data set [1] came out at 36 ± 10%.

`O=C1C(O)=C(CC=C(Cl)Cl)C(=O)c2ccccc21` [dichloroallyl lawsone]: the activity at 500 µM in data set [1] turned out to be 30 ± 2%. As for “PiDHODH (dihydroorotate dehydrogenase) (Phytophthora infestans T30-4)”, the Km in data set [2] came out at 57 ± 3 µM. `C/C(O)=C(\C#N)C(=O)Nc1ccc(C(F)(F)F)cc1` [A77 1726] yielded an IC50 in data set [3] of 79 ± 8 µM.

As to `CC(O)=C(C#N)C(=O)Nc1ccc(-c2ccccc2)cc1Cl` [compound 28, N-(3-chlorobiphenyl-4-yl)-2-cyano-3-hydroxybut-2-enamide], in data set [1], the activity at 500 µM is 1 ± 0.7%. With `COc1c(-c2ccccc2)ccc(NC(=O)C(C#N)=C(C)O)c1Cl` [compound 19, N-(3-chloro-2-methoxybiphenyl-4-yl)-2-cyano-3-hydroxybut-2-enamide], the activity at 500 µM in data set [1] is 2 ± 0.5%. Turning to `COc1cc(-c2ccc(Nc3ccccc3C(=O)O)c(OC)c2)ccc1Nc1ccccc1C(=O)O` [Redoxal], the activity at 500 µM in data set [1] came out at 31 ± 8%. Regarding `O=C(O)C1=C(C(=O)Nc2ccc(-c3ccccc3)cc2)CCC1` [compound 1, 2-(4-biphenylylcarbamoyl)-1-cyclopentene-1-carboxylic acid], the activity at 500 µM in data set [1] came to 23 ± 4%.

B1: StDHODH (dihydroorotate dehydrogenase) (Solanum tuberosum; I273V/I299V/P120T/P359Q) (protein)
chain: ASTVDEATFCGWLFSATKLVNPFFAFLDPEVAHRLAVSAAARGWVPREKRTDLPILGLDVWGRRFSNPVGLAAGFDKNAEAVEGLLGLGFGFVEVGSVTPIPQEGNPKPRIFRLPNEGALINRCGFNSEGIVAVAKRLGAQHGKRKLETSSTSSPAGDEVKHGGKAGPGILGVNLGKNKTSEDAAADYVQGVHTLSQYADYLVVNISSPNTPGLRQLQGRKQLKDLVKKVQAARDEMQWGEEGPPPLLVKIAPDLSKQDLEDIAAVALALRVDGLIISNTTIQRPDSVSQNPVAQETGGLSGKPLFNMSTNILKEMYLLTKGRIPLIGCGGISSGEDAYKKIRAGATLVQLYTAFGYGGPALIPNIKAELAHCLEKDGYKSVHEAVGADCR
As for B1, in the data set “purified protein”, the Km was 20 ± 1 µM.
